Data on one substance can be found in patent US20060127980A1, “Human excitatory amino acid transporter-2 gene promoter and uses thereof” (priority 2003, published 2006).

The test system of one experiment is hEAAT2 mRNA. In words: Northern blot of hEAAT2 mRNA in PHFA treated with modulators. The experiment is classed as cell-based, human. The method, then:
(§1) FIG. 4A-D. Effect of modulators of hEAAT2 activity on hEAAT2 expression and hEAAT2 promoter activity in PHFA. A. A Northern analysis of hEAAT2 and GAPDH mRNA expression following treatment with EGF (30 ng/ml), TGF-α (30 ng/ml), dbcAMP (200 μM, bromo-cAMP (100 μM) or TNF-α (200 U/ml) for 7 days. B. Nuclear run-on assays determining the relative rates of hEAAT2 and GAPDH transcription as a function of 7-day treatment with the same concentrations of the indicated agents. C. A time course of mRNA expression of hEAAT2 and GAPDH following treatment with EGF, bromo-cAMP or TNF-α (same concentrations as in A.). D. Fold luciferase activity in PHFA transfected with flhEAAT2Prom-luc or various deletion mutants of hEAAT2 and non-transfected controls treated with the indicated compounds for four days.
(§2) Northern and Western Blotting Assays. Total cellular RNA was isolated by the guanidinium/phenol extraction method and Northern blotting was performed as described (Huang et al., 2001, Oncogene 20(48):7051-7063; Su et al., 2000, Oncogene 19(30):3411-3421; Su et al., 2001, Nucleic Acids Res 29(8):1661-1671). Western blotting assays were performed as described (Su et al., 1998, Proc Natl Acad Sci USA 95(24):14400-14405; Su et al., 2002, Oncogene 21(22):3592-602).
Positive and Negative Regulation of hEAAT2 Transcription, Promoter Activity and mRNA Levels in PHFA. Several enhancers of GLT-1 expression in rat astrocytes have been identified, including epidermal growth factor (EGF), transforming growth factor-α (TGF-α) and dibutyryl cyclic AMP (dbcAMP) (Swanson et al., 1997, J Neurosci 17(3):932-940; Zelenaia et al., 2000, Mol Pharmacol 57(4):667-678). Based on these considerations, experiments were performed to determine if these agents similarly modify human hEAAT2 expression in PHFA. Consistent with previous observations in rat astrocytes, 7-day treatment with EGF, TGF-α, and two analogs of cAMP, dbcAMP and bromo-cAMP, stimulated hEAAT2 mRNA expression in PHFA, whereas TNF-α decreased expression (FIG. 4B). […] In contrast, TNF-α decreased expression by 48 h (FIG. 4C).

The subject of the next experiment is hEAAT2 transcription. In words: Nuclear run-on assay of hEAAT2 transcription in PHFA. Type of experiment: cell-based, human. The following applies: 7-day treatment. As for the experimental part: as §1
Primer Extension Analysis and Nuclear Run-on Assays. Primer extension assays were performed as described (Su et al., 2000, Oncogene 19(30):3411-3421). A primer with the sequence 5′-[…]-3′ (SEQ ID NO:6) complementary to the 5′ UTR of the hEAAT2 cDNA was used for this assay. Nuclear run-on assays were performed as described (Su et al., 1997, Proc Natl Acad Sci USA 94(17):9125-9130).
To examine whether stimulation of hEAAT2 expression involves transcriptional changes, nuclear run-on assays were performed.

A further experiment relates to hEAAT2 promoter. In words: flhEAAT2Prom-luc and deletion mutant luciferase reporter assay in PHFA treated with modulators. Type of experiment: cell-based, human. The method, then:
as §1
Construction of hEAAT2 Promoter Deletion Mutants and Performance of the Luciferase Assays. 5′-deletion mutants of the hEAAT2 promoter were made with exonuclease III digestion using the Erase-A-Base System (Promega) as described for the PEG-3 promoter (Su et al., 2000, Oncogene 19(30):3411-3421). The flhEAAT2Prom-luc and flhEAAT2Prom-luc deletion mutants were cloned into the pGL3-basic luciferase reporter vector (Promega) and luciferase reporter assays were performed as described (Su et al., 2000, Oncogene 19(30):3411-3421; Su et al., 2001, Nucleic Acids Res 29(8):1661-1671), except that instead of using lipofectamine, which was toxic to PHFA, the calcium phosphate precipitation transfection technique was used (Babiss et al., 1986, Proc Natl Acad Sci USA 83(7):2167-2171).
Preferential Expression of the hEAAT2 Promoter in PHFA and Deletion Analysis of the hEAAT2 Promoter. hEAAT2 is expressed in brain-derived cells, mainly astrocytes (Tanaka et al., 1997, Science 276(5319):1699-1702; Anderson et al., 2000, Glia 32(1):1-14). Experiments were performed to confirm hEAAT2 promoter activity in normal human astrocytes and to determine expression levels in other cell types (FIG. 2A). Primary early passage and established human normal and tumor cell lines were co-transfected with a putative full-length ˜2.5 kb hEAAT2 promoter, a SacII fragment extending from bp −2426 to bp +44, was cloned into the pGL3-basic vector (Promega), where it drove expression of the firefly luciferase (luc) gene, and a pSV-β-galactosidase expression plasmid. Relative fold expression of a full length hEAAT2 promoter-luciferase (flhEAAT2Prom-luc) construct was determined as described (Su et al., 2000, Oncogene 19(30):3411-3421; Su et al., 2001, Nucleic Acids Res 29(8):1661-1671), and activity versus transfection with a pSV-β-galactosidase plasmid was calculated as described (Su et al., 2000, Oncogene 19(30):3411-3421; Su et al., 2001, Nucleic Acids Res 29(8):1661-1671) to equalize for differences in transfection efficiency.
To examine further the relationship between hEAAT2 and treatment with the various glutamate transporter modulators, transient transfection assays were performed in PHFA using the flhEAAT2Prom-luc constructs and various deletions thereof (FIG. 4D). […] In the case of dbcAMP, promoter activity was enhanced by ˜3-fold.

A further experiment concerns hEAAT2 protein. In words: Western blot of EAAT2 protein in PHFA. The experiment is classed as cell-based, human. The method, then: FIG. 5A-E. Effect of pharmacological inhibitors on hEAAT2 promoter activity, and mRNA and protein expression in PHFA following various treatment protocols. A. hEAAT2 promoter activity in PHFA, either untreated (−) or treated with EGF (30 ng/ml), in the absence (−) or presence (+) of KT5720 (5 μM), AG1478 (1 μM), PDTC (100 μM), wortmannin (WRT) (100 nM) or PD98049 (PD) (50 μM). B. hEAAT2 promoter activity in PHFA, either untreated (−) or treated with bromo-cAMP (250 μM) in the absence (−) or presence (+) of KT5720 (5 μM), AG1478 (1 μM), PDTC (100 μM), wortmannin (WRT) (100 nM) or PD98049 (PD) (50 μM). C. hEAAT2 promoter activity in PHFA, either untreated (−) or treated with TNF-α (200 U/ml), in the absence (−) or presence (+) of KT5720 (5 μM), AG1478 (1 μM), PDTC (100 μM), wortmannin (WRT) (100 nM) or PD98049 (PD) (50 μM). D. The effect of the various treatment protocols on hEAAT2 and GAPDH mRNA levels. Upper panel presents relative hEAAT2 RNA expression versus GAPDH expression relative to control untreated or treated samples based on scanning of autoradiograms. Lower panel, actual Northern blots. E. The effect of the various treatment protocols on EAAT2 and ACTIN protein levels. Upper panel presents relative EAAT2 protein expression versus ACTIN expression relative to control untreated or treated samples based on scanning of autoradiograms. Individual experiments were performed 3 times using triplicate samples and S.D. from the mean is presented.
as §2

A further experiment concerns hEAAT2 expression. In words: hEAAT2 expression in PHFA, readout not specified. The experiment is classed as cell-based, human.
A further experiment relates to glutamate uptake by PHFA. The following applies: Fine et al., 1996; cited from earlier work.

Regarding TNF-α, the “hEAAT2 mRNA expression” value with hEAAT2 mRNA (7-day treatment, EGF 30 ng/ml, TGF-α 30 ng/ml, dbcAMP 200 μM, bromo-cAMP 100 μM, TNF-α 200 U/ml) was “decreased”. The “time by which hEAAT2 mRNA expression was changed” value with hEAAT2 mRNA (time course, bromo-cAMP enhanced, TNF-α decreased) is recorded as no more than 48 h. Further, in the experiment on hEAAT2 transcription, the “relative rate of transcription of hEAAT2 RNA compared with GAPDH” value is recorded as “decreased”. The “hEAAT2 promoter activity (in words)” value with hEAAT2 promoter is given as “inhibited”. Besides, the hEAAT2 protein levels entry in the experiment with hEAAT2 protein is reported as “decreased”. Moreover, the hEAAT2 expression entry in the experiment with hEAAT2 expression is on record as “decreased”. Also, the “glutamate uptake by PHFA” value in the experiment on glutamate uptake by PHFA is “inhibits”.
